Values of other authors in patent US20150202168A1, “ORAL FILM FORMULATIONS COMPRISING DAPOXETINE AND TADALAFIL” (Sanovel Ilac Sanayi Ve Ticaret Anonim Sirketi, priority 2012, published 2015).

Tests used:
[1] = following oral administration
[2] = Int J Impot Res. 2006; 18(1):104-10
human body = conditions: studies conducted

## CN1CC(=O)N2[C@H](c3ccc4c(c3)OCO4)c3[nH]c4ccccc4c3C[C@@H]2C1=O [Tadalafil, (6R-trans)-6-(1,3-benzodioxol-5-yl)-2,3,6,7,12,12a-hexahydro-2-methyl-pyrazino[1′,2′:1,6]pyrido[3,4-b]indole-1,4-dione]
other
  solubility in water: poorly soluble

## CN(C)[C@@H](CCOc1cccc2ccccc12)c1ccccc1 [dapoxetine]
[1]
  binding to the plasma proteins: almost completely
[2]
  interactions with PDE5 inhibitors: does not have pharmaceutical interactions

## Mogroside
Human body
  toxicity to human body: not toxic
